From PMC9137037 (Frontiers in Oncology, 2022) come the findings set out here.

Where no end group is shown, it is not given here.

The assay relates to CT26 colon carcinoma cells. The experiment in a line: CT26 tumor challenge in immunized syngeneic BALB/c mice. It is filed as in vivo, mouse. As to the method:
The peptide vaccine MVF-PD-1(92-110) was dissolved in sterile water and mixed with either ISA 720 or ISA 51 (1:1) ratio. We utilized the well-established murine colon carcinoma cell line CT26 tumor model in syngeneic BALB/c mice to evaluate the effects of vaccination previously described ([23]). Briefly, 6–8-week-old female BALB/c mice were immunized with the peptide vaccine, and 2 weeks after the third immunization, the mice were challenged with 1×10^5 CT26 colon cancer cells by subcutaneous injection (SC). The CT26 cancer cell line was maintained in the DMEM medium with 10% FBS 5% CO2 at 37 °C. Phosphate-buffered saline (PBS)-treated mice were set as negative control, while the positive control group mice were treated with an anti-mouse PD-1 monoclonal antibody (clone 29F.1A12; Bio X Cell, West Lebanon, NH, USA) with 200 μg/dose per mouse. Blood was collected biweekly after the primary immunization until 2 weeks after the third immunization. Tumor growth was monitored daily, especially 7 days after the tumor challenge. The mice were euthanized at the end of treatment, and the tumors were extracted and weighed.
The mice in PBS and mAb (29F.1A12) groups, n = 10; group 1 to group 7, n = 8, group 8 n = 7 (one mouse was lost due to a non-immunization related reason before the challenge).
The mice challenged with CT26 tumor cells were monitored at least twice per week and tumor sizes were measured by calipers. The formula, volume (LWW) = (length × width × width)/2, was used to calculate tumor volumes. All values are shown as means ± standard deviation. Data statistical analysis was performed by GraphPad Prism 8.1.2 (GraphPad Software, Inc. San Diego, CA, USA) and the indicated statistical analysis. The percentage of tumor growth inhibition (%TGI) was defined as the difference between the median tumor volume (MTV) of the treatment group with the PBS control group, and the value was calculated by the following formula: %TGI=100*(MTV control − MTV test)/MTV control. The percentage of complete response (CR) was defined as the tumor volume equal to or less than 50 mm^3 for at least 3 consecutive measurements during the study. The log-rank (Mantel−Cox) test was used to compare the percentage of CR in multiple groups. Student’s t-test was used to analyze the difference between the two groups. One-way analysis of variance (one-way ANOVA) followed by the Tukey’s multiple comparison test were used to compare data in multiple groups or data between groups in multiple groups, and the two-way ANOVA was used to analyze the whole curve comparison. The log-rank (Mantel−Cox) test was use to compare the survival curves. A p-value or an adjusted p-value less than 0.05 was accepted as a statistically significant difference.
To verify and confirm the previous immunogenicity studies and antitumor activities of PD-1(92-110) ([23]), 6–8-week-old BALB/c mice were vaccinated with MVF-PD-1(92-110) every 2- or 3- week intervals. Peptide cancer vaccine (100 μg) mixed with ISA 720 (1:1) or ISA 51 (1:1) or nor-MDP 33 μg were used per mice. Mice were boosted with the designed doses of vaccine every 2- or 3-week intervals for a total of 3 vaccine shots. Blood was collected weekly for monitoring antibody titers. After 2 weeks of the third immunization (3Y), mice were challenged with CT26 colon carcinoma cells for 1×10^5 cells per mouse. The tumor growths were monitored and checked daily, especially 7 days post-challenge, and the tumor size was measured with calipers ( Figure 1A ). For the positive control group, we treated the mice with an anti-mouse PD-1 antibody (clone 29F.1A12) twice a week for up to three weeks, while the negative control group was treated with PBS. The mice CT26 tumor model study was separated into 10 different groups, post-challenge treated with PBS as the negative control group or an anti-mouse PD-1 antibody (clone 29F.1A12) as positive control group ( Figure 1B ). Group 1 to group 8 comprised the peptide vaccine treatment groups. […]

Take “KLLSLIKGVIVHRLEGVEGPSLGAISLAPKAQIKESLRAEL [MVF-PD-1(92-110)]”: under “CR = tumor volume ≤50 mm^3 for at least 3 consecutive measurements, combined immunized groups vs PBS and mAb 29F.1A12, log-rank”, the “percentage of complete response (CR)” value is given as “higher percentage of complete response”. For the same sequence, where the note is “mouse, CT26, Figures 2G, H”, the “tumor burden vs PBS and vs 29F.1A12 (summary)” value is recorded as “PD-1(92) significant less tumor burden vs. PBS, no difference vs. 29F.1A12 ( Figures 2G, H );”. Also, where the note is “mouse, CT26, Figures 2G-I”, the “2-week vs. 3-week immunization interval (summary)” value is given as 2-week vs. 3-week no difference ( Figures 2G-I );, the “ISA 720 vs ISA 51 (summary)” value was “ISA 720 vs ISA 51 no difference ( Figures 2G-I );” and the “No nor-MDP vs nor-MDP (summary)” value was “No nor-MDP vs nor-MDP no difference ( Figures 2G-I );”. In addition, the “tumor size (LWW) versus the PBS group” value (two-way ANOVA of whole-curve comparison, p-value less than 0.01, majority of the mice) is given as “significantly inhibited”.
